Laboratory results taken from ChEMBL document CHEMBL4888484, “Replenishing the malaria drug discovery pipeline: Screening and hit evaluation of the MMV Hit Generation Library 1 (HGL1) against asexual blood stage Plasmodium falciparum ,using a nano luciferase reporter read-out” (2022).

What was measured:
Plasmodium falciparum [1] = test: Hit confirmation in dose-response curve in NF54 nanoGlo assay, at 12h; assay type: functional, organism-based, Erythrocyte; design: timepoint 12 hour; details: Plasmodium falciparum, NF54, Erythrocyte, 12 h
Plasmodium falciparum [2] = test: Hit confirmation in dose-response curve in NF54 pLDH assay, at 72h; assay type: functional, organism-based; design: timepoint 72 hour; details: NF54, Erythrocyte
[3] = Hit confirmation in dose-response curve in HepG2 cytotoxicity assay, at 72h; assay type: toxicity, cell-based; design: timepoint 72 hour; details: human, HepG2 cells
Plasmodium falciparum [4] = test: Hit confirmation in dose-response curve in NF54 nanoGlo assay, at 72h; assay type: functional, organism-based, Erythrocyte; design: timepoint 72 hour; details: Plasmodium falciparum, NF54, Erythrocyte, 72 h
Plasmodium falciparum [5] = test: Hit confirmation in dose-response curve in Dd2 pLDH assay, at 72h; assay type: functional, organism-based; design: timepoint 72 hour; details: Dd2, Erythrocyte

CCc1ccc(CN2CCC[C@H](c3ncc[nH]3)C2)nc1
IC50 (Plasmodium falciparum [1]): 10.7 µM | IC50 (Plasmodium falciparum [2]): 1.55 µM | IC50 at 72 h [3]: > 10 µM | IC50 (Plasmodium falciparum [4]): 1.15 µM | IC50 (Plasmodium falciparum [5]): 1.78 µM

COc1ccc(CN(Cc2ccncc2)CC2CCN(C3CCN(C)CC3)CC2)c(F)c1
IC50 (Plasmodium falciparum [1]): 2.82 µM | IC50 (Plasmodium falciparum [2]): 1.45 µM | IC50 at 72 h [3]: > 10 µM | IC50 (Plasmodium falciparum [4]): 1.29 µM | IC50 (Plasmodium falciparum [5]): 1.17 µM

Cc1cnccc1NCCNC1CCN(c2ccc(Cl)cc2)CC1
IC50 (Plasmodium falciparum [1]): 0.417 µM | IC50 (Plasmodium falciparum [2]): 0.363 µM | IC50 at 72 h [3]: 5.25 µM | IC50 (Plasmodium falciparum [4]): 0.316 µM | IC50 (Plasmodium falciparum [5]): 0.372 µM

Cc1cc(N2C[C@H]3CC[C@@H](C2)[C@H]3N(C)C)nc(Nc2cccc(O)c2)n1
IC50 (Plasmodium falciparum [1]): 5.01 µM | IC50 (Plasmodium falciparum [2]): 2.04 µM | IC50 at 72 h [3]: > 10 µM | IC50 (Plasmodium falciparum [4]): 1.51 µM | IC50 (Plasmodium falciparum [5]): 1.78 µM

C[n+]1ccc(-c2ncc(-c3ccccc3)o2)c2ccccc21
IC50 (Plasmodium falciparum [1]): 6.17 µM | IC50 (Plasmodium falciparum [2]): 1.41 µM | IC50 at 72 h [3]: > 10 µM | IC50 (Plasmodium falciparum [4]): 0.759 µM | IC50 (Plasmodium falciparum [5]): 1.51 µM

Cc1ccc(OCCNc2cc([C@H]3C[C@H](N)C3)nc(C3CC3)n2)cc1C
IC50 (Plasmodium falciparum [1]): 5.62 µM | IC50 (Plasmodium falciparum [2]): 4.47 µM | IC50 at 72 h [3]: > 10 µM | IC50 (Plasmodium falciparum [4]): 3.31 µM | IC50 (Plasmodium falciparum [5]): 4.37 µM

Oc1cccc(CN2CCC3(CC2)C[C@H](c2ccccc2)CN(C2CC2)C3)c1
IC50 (Plasmodium falciparum [1]): 5.13 µM | IC50 (Plasmodium falciparum [2]): 6.31 µM | IC50 at 72 h [3]: > 10 µM | IC50 (Plasmodium falciparum [4]): 3.24 µM | IC50 (Plasmodium falciparum [5]): 6.31 µM

O=C1c2ccccc2C(c2ccc(NC(=O)c3cccc4ccccc34)cc2)(c2ccc(NC(=O)c3cccc4ccccc34)cc2)c2ccccc21
IC50 (Plasmodium falciparum [1]): > 10 µM | IC50 (Plasmodium falciparum [2]): 4.47 µM | IC50 at 72 h [3]: > 10 µM | IC50 (Plasmodium falciparum [4]): 0.871 µM | IC50 (Plasmodium falciparum [5]): 1.58 µM

CC1(C)Cc2nc3ccccc3c(NCc3ccccc3)c2[C@@H](O)C1
IC50 (Plasmodium falciparum [1]): 4.37 µM | IC50 (Plasmodium falciparum [2]): 3.98 µM | IC50 at 72 h [3]: > 10 µM | IC50 (Plasmodium falciparum [4]): 2.34 µM | IC50 (Plasmodium falciparum [5]): 2.63 µM

Oc1cc(CC[C@H]2CCCCN2)cc(-c2cnc3ccccc3n2)c1
IC50 (Plasmodium falciparum [1]): 2.09 µM | IC50 (Plasmodium falciparum [2]): 2.75 µM | IC50 at 72 h [3]: > 10 µM | IC50 (Plasmodium falciparum [4]): 1.58 µM | IC50 (Plasmodium falciparum [5]): 1.95 µM

Cc1nnc(NC(c2cnc3ccccc3c2)[C@H]2C[C@@H](O)C2)s1 (stereo not given in full)
IC50 (Plasmodium falciparum [1]): 1.58 µM | IC50 (Plasmodium falciparum [2]): > 10 µM | IC50 at 72 h [3]: > 10 µM | IC50 (Plasmodium falciparum [4]): 4.07 µM | IC50 (Plasmodium falciparum [5]): > 10 µM

C=CCCC(CN1C[C@H]2CC=CC[C@H]2C1)Oc1ncc(F)cn1 (stereo not given in full)
IC50 (Plasmodium falciparum [1]): 7.41 µM | IC50 (Plasmodium falciparum [2]): 0.0224 µM | IC50 at 72 h [3]: > 10 µM | IC50 (Plasmodium falciparum [4]): 0.0178 µM | IC50 (Plasmodium falciparum [5]): > 10 µM

COC(=O)c1c(NC(C)=O)c2cc(NC3CCOCC3)cnc2n1CCc1ccc(OC)cc1
IC50 (Plasmodium falciparum [1]): > 10 µM | IC50 (Plasmodium falciparum [2]): > 10 µM | IC50 at 72 h [3]: > 10 µM | IC50 (Plasmodium falciparum [4]): > 10 µM | IC50 (Plasmodium falciparum [5]): > 10 µM

N[C@H]1C[C@@H](c2cc(N3CCN(C4CCCCC4)CC3)nc(N3CCCC3)n2)C1
IC50 (Plasmodium falciparum [1]): 5.75 µM | IC50 (Plasmodium falciparum [2]): 4.17 µM | IC50 at 72 h [3]: > 10 µM | IC50 (Plasmodium falciparum [4]): 2 µM | IC50 (Plasmodium falciparum [5]): 2.29 µM

CN1CCN(Cc2cc3cc4c(cc3nc2-c2ccc(Cl)cc2)OCO4)CC1=O
IC50 (Plasmodium falciparum [1]): 4.47 µM | IC50 (Plasmodium falciparum [2]): > 10 µM | IC50 at 72 h [3]: > 10 µM | IC50 (Plasmodium falciparum [4]): 4.07 µM | IC50 (Plasmodium falciparum [5]): > 10 µM

CCc1cc(N2C[C@@H]3NC(=O)CN(C)Cc4ccc(OC)c(c4)Oc4cccc(c4)CO[C@H]3C2)nc(N(C)C)n1
IC50 (Plasmodium falciparum [1]): 4.79 µM | IC50 (Plasmodium falciparum [2]): 3.47 µM | IC50 at 72 h [3]: > 10 µM | IC50 (Plasmodium falciparum [4]): 2.04 µM | IC50 (Plasmodium falciparum [5]): 3.47 µM

COc1nc(N2[C@@H]3CC[C@H]2C[C@@H](OC)C3)ncc1F
IC50 (Plasmodium falciparum [1]): > 10 µM | IC50 (Plasmodium falciparum [2]): 6.17 µM | IC50 at 72 h [3]: > 10 µM | IC50 (Plasmodium falciparum [4]): 4.07 µM | IC50 (Plasmodium falciparum [5]): > 10 µM

Cc1cccc2c(-c3cc(N)nc(N)n3)c[nH]c12
IC50 (Plasmodium falciparum [1]): 3.16 µM | IC50 (Plasmodium falciparum [2]): 1.2 µM | IC50 at 72 h [3]: > 10 µM | IC50 (Plasmodium falciparum [4]): 1 µM | IC50 (Plasmodium falciparum [5]): 1.1 µM

O=C1NC(c2ccccc2)=NC12CCN(Cc1c(F)cccc1F)CC2
IC50 (Plasmodium falciparum [1]): > 10 µM | IC50 (Plasmodium falciparum [2]): 6.46 µM | IC50 at 72 h [3]: > 10 µM | IC50 (Plasmodium falciparum [4]): 2.09 µM | IC50 (Plasmodium falciparum [5]): 4.27 µM

Cn1c(Cc2n[n+]3c(-c4ccccc4)cc(-c4ccccc4)nc3n2C)n[n+]2c(-c3ccccc3)cc(-c3ccccc3)nc12
IC50 (Plasmodium falciparum [1]): 1.74 µM | IC50 (Plasmodium falciparum [2]): 0.331 µM | IC50 at 72 h [3]: 4.79 µM | IC50 (Plasmodium falciparum [4]): 0.257 µM | IC50 (Plasmodium falciparum [5]): 0.234 µM

CC[n+]1ccc(-c2ncc(-c3ccc(C(C)(C)C)cc3)o2)cc1
IC50 (Plasmodium falciparum [1]): > 10 µM | IC50 (Plasmodium falciparum [2]): 0.182 µM | IC50 at 72 h [3]: > 10 µM | IC50 (Plasmodium falciparum [4]): 0.589 µM | IC50 (Plasmodium falciparum [5]): 0.417 µM

COc1ccc(-c2cc(-c3ccccc3)nc(N3CCC(C)CC3)n2)cc1
IC50 (Plasmodium falciparum [1]): > 10 µM | IC50 (Plasmodium falciparum [2]): > 10 µM | IC50 at 72 h [3]: > 10 µM | IC50 (Plasmodium falciparum [4]): 9.55 µM | IC50 (Plasmodium falciparum [5]): > 10 µM

CN1CCN([C@H]2CCN(c3ccnc4ccc(Cl)cc34)C[C@H]2CCCO)CC1
IC50 (Plasmodium falciparum [1]): 2.95 µM | IC50 (Plasmodium falciparum [2]): 2.14 µM | IC50 at 72 h [3]: > 10 µM | IC50 (Plasmodium falciparum [4]): 1.74 µM | IC50 (Plasmodium falciparum [5]): 1.48 µM

CNC(=O)[C@@H]1C[C@H](NCc2cc(OC)c(OC)c(OC)c2)CN1CC(c1ccccc1)c1ccccc1
IC50 (Plasmodium falciparum [1]): 3.63 µM | IC50 (Plasmodium falciparum [2]): 3.63 µM | IC50 at 72 h [3]: > 10 µM | IC50 (Plasmodium falciparum [4]): 2.14 µM | IC50 (Plasmodium falciparum [5]): 2.82 µM

CCN1CCN(C2CCN(c3ncc(F)c(OC)n3)CC2)CC1
IC50 (Plasmodium falciparum [1]): > 10 µM | IC50 (Plasmodium falciparum [2]): 3.89 µM | IC50 at 72 h [3]: > 10 µM | IC50 (Plasmodium falciparum [4]): 2.57 µM | IC50 (Plasmodium falciparum [5]): > 10 µM

Nc1nc(N2CCN(c3ccc(F)c(Cl)c3)CC2)cc([C@H]2C[C@@H](N)C2)n1
IC50 (Plasmodium falciparum [1]): 6.31 µM | IC50 (Plasmodium falciparum [2]): 5.75 µM | IC50 at 72 h [3]: > 10 µM | IC50 (Plasmodium falciparum [4]): 2.75 µM | IC50 (Plasmodium falciparum [5]): 6.31 µM

O[C@H]1CNCC[C@@H]1Nc1cc(-c2ccccc2)nc2ccccc12
IC50 (Plasmodium falciparum [1]): 8.51 µM | IC50 (Plasmodium falciparum [2]): 3.8 µM | IC50 at 72 h [3]: > 10 µM | IC50 (Plasmodium falciparum [4]): 2 µM | IC50 (Plasmodium falciparum [5]): 1.78 µM

CN(Cc1ccc(-c2ccccc2)cc1)c1cc([C@H]2C[C@@H](N)C2)nc(N)n1
IC50 (Plasmodium falciparum [1]): 3.98 µM | IC50 (Plasmodium falciparum [2]): 4.17 µM | IC50 at 72 h [3]: > 10 µM | IC50 (Plasmodium falciparum [4]): 2.19 µM | IC50 (Plasmodium falciparum [5]): 3.24 µM

COc1c(C)cc(C(=O)[C@H]2CCCN(c3cc(N)ncn3)C2)cc1C
IC50 (Plasmodium falciparum [1]): 5.5 µM | IC50 (Plasmodium falciparum [2]): > 10 µM | IC50 at 72 h [3]: > 10 µM | IC50 (Plasmodium falciparum [4]): 5.37 µM | IC50 (Plasmodium falciparum [5]): > 10 µM

COc1ccc(CNCCC2C(C)CN(C)C(C)C2Cc2ccccc2)cc1 (stereo not given)
IC50 (Plasmodium falciparum [1]): 4.07 µM | IC50 (Plasmodium falciparum [2]): 3.63 µM | IC50 at 72 h [3]: > 10 µM | IC50 (Plasmodium falciparum [4]): 1.66 µM | IC50 (Plasmodium falciparum [5]): 2.63 µM

N[C@H]1C[C@H](c2cc(NCCCc3cccnc3)nc(C3CC3)n2)C1
IC50 (Plasmodium falciparum [1]): 3.55 µM | IC50 (Plasmodium falciparum [2]): 2 µM | IC50 at 72 h [3]: > 10 µM | IC50 (Plasmodium falciparum [4]): 1.58 µM | IC50 (Plasmodium falciparum [5]): 2.04 µM

CC(CC1OCC(C[N+]2(Cc3ccccc3)CCCCC2)O1)CC(C)(C)C (stereo not given)
IC50 (Plasmodium falciparum [1]): > 10 µM | IC50 (Plasmodium falciparum [2]): 2.04 µM | IC50 at 72 h [3]: > 10 µM | IC50 (Plasmodium falciparum [4]): 0.912 µM | IC50 (Plasmodium falciparum [5]): 2.51 µM

Cc1nc(N2CCC(c3nc(-c4ccccc4)no3)CC2)c2c(C)noc2n1
IC50 (Plasmodium falciparum [1]): 1.86 µM | IC50 (Plasmodium falciparum [2]): > 10 µM | IC50 at 72 h [3]: > 10 µM | IC50 (Plasmodium falciparum [4]): 2.51 µM | IC50 (Plasmodium falciparum [5]): > 10 µM

CN1CCC(N2CCC(CN(Cc3ccncc3)Cc3c(F)cccc3Cl)CC2)CC1
IC50 (Plasmodium falciparum [1]): 1.74 µM | IC50 (Plasmodium falciparum [2]): 1.17 µM | IC50 at 72 h [3]: > 10 µM | IC50 (Plasmodium falciparum [4]): 0.708 µM | IC50 (Plasmodium falciparum [5]): 0.603 µM

O=C(N[C@H]1CC[C@@H]2CCC[C@@H]21)c1c[nH]c(=O)c(Cl)c1
IC50 (Plasmodium falciparum [1]): 2.45 µM | IC50 (Plasmodium falciparum [2]): 3.98 µM | IC50 at 72 h [3]: > 10 µM | IC50 (Plasmodium falciparum [4]): 2.19 µM | IC50 (Plasmodium falciparum [5]): 5.13 µM

N#Cc1cccc(-c2n[nH]c3c2CN(c2ccc(-c4ccccc4)nn2)CC3)c1
IC50 (Plasmodium falciparum [1]): 2.63 µM | IC50 (Plasmodium falciparum [2]): 4.79 µM | IC50 at 72 h [3]: > 10 µM | IC50 (Plasmodium falciparum [4]): 1.2 µM | IC50 (Plasmodium falciparum [5]): 3.09 µM
